US20200405868A1, “GEL-FORMING POLYPEPTIDES” (priority 2018, published 2020)
“Also recorded” adds a separate entry of the source. Where no end group is shown, it is not given here. The star is where a group is joined. Palmitoyl = CCCCCCCCCCCCCCCC(=O)*

Test: Compound gel-forming ability in water (visual inspection, tube tapping assay, tilted tube assay);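 note: peptides mixed with de-ionized water at about 22-25 °C, judged after 20 min by eye plus tube tapping (10 taps, moves counted) and 90° tilt mobility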
Assay type: physicochemical
Conditions: for gel formation at 11% w/w: 11% w/w in water; for gel formation at 20% w/w: 20% w/w in water; for Physical property at 11% w/w: 11% w/w in aqueous solution, room temperature; for gel formation in aqueous solution, 11% / propensity to form gels, wild-type counterparts, 11% / propensity to form gels, chimeric or mutated polypeptides, 11%: 11% w/w; for gel formation at the selected concentration: selected concentration (i.e., at 30%, 20%, 11%, or 6% w/w); for gel formation at 6% w/w: 6% w/w in water; for gel formation in aqueous solution, 6% / propensity to form gels, wild-type counterparts, 6% / propensity to form gels, chimeric or mutated polypeptides, 6%: 6% w/w

Molecule	gel formation at 11% w/w	Physical property at 11% w/w (Table 1)	gel formation in aqueous solution, 11% (Table 3)	propensity to form gels, wild-type counterparts, 11% (Table 5)	gel formation in aqueous solution, 6% (Table 3)	further results
GRKKRRQRRRPQ [SEQ ID NO:36, reference compound]	cannot form gel	AS/IS	AS/IS (AS/IS for aqueous solution or insoluble)	AS/IS		gel formation at 20% w/w: cannot form gel; gel formation in aqueous solution, 20% (Table 3, 20% w/w): AS/IS (AS/IS for aqueous solution or insoluble); propensity to form gels, wild-type counterparts, 20% (Table 5, 20% w/w): AS/IS; gel formation at the selected concentration: only form aqueous solution or are insoluble
CC[C@H](C)[C@@H]1NC(=O)[C@H](Cc2ccc(O)cc2)NC(=O)[C@@H](N)CSSC[C@@H](C(=O)N2CCC[C@H]2C(=O)N[C@@H](CC(C)C)C(=O)NCC(N)=O)NC(=O)[C@H](CC(N)=O)NC(=O)[C@H](CCC(N)=O)NC1=O [SEQ ID NO:5, reference compound]	semisolid gel	SS (SS for semisolid gel)	SS (SS for semisolid gel)	SS (An ability to form semisolid gel is represented by an SS)	AS/IS (AS/IS for aqueous solution or insoluble)	gel formation at 6% w/w: does not form liquid or semisolid gel; propensity to form gels, wild-type counterparts, 6% (Table 5): AS/IS; gel formation at the selected concentration: only form aqueous solution or are insoluble
Pal-SSPHSY-miniPEG-RGD-NH2 [SEQ ID NO:247]	semisolid gel		SS (SS for semisolid gel)			propensity to form gels, chimeric or mutated polypeptides, 11% (Table 5): SS (An ability to form semisolid gel is represented by an SS)
Pal-KVQKLSAPVDPSSPHSY-miniPEG-YNWNSFGLRF-NH2 [SEQ ID NO:208]						gel formation in aqueous solution, 20% (Table 3, 20% w/w): SS (SS for semisolid gel); propensity to form gels, chimeric or mutated polypeptides, 20% (Table 5, 20% w/w): SS (An ability to form semisolid gel is represented by an SS)
RGD-NH2 [SEQ ID NO:44, reference compound]		AS/IS	AS/IS (AS/IS for aqueous solution or insoluble)	AS/IS		
Pal-KVQKLSAPVDPSSPHSY-miniPEG-RPKPQQFFGLM-NH2 [SEQ ID NO:215]			SS (SS for semisolid gel)		AS/IS (AS/IS for aqueous solution or insoluble)	propensity to form gels, chimeric or mutated polypeptides, 6% (Table 5): AS/IS; propensity to form gels, chimeric or mutated polypeptides, 11% (Table 5): SS (An ability to form semisolid gel is represented by an SS)
Pal-SSPHSY-miniPEG-YIGSR-NH2 [SEQ ID NO:246]	semisolid gel		SS (SS for semisolid gel)		SS (SS for semisolid gel)	propensity to form gels, chimeric or mutated polypeptides, 6% (Table 5): SS (An ability to form semisolid gel is represented by an SS); propensity to form gels, chimeric or mutated polypeptides, 11% (Table 5): SS (An ability to form semisolid gel is represented by an SS)
Pal-SSPHSY-miniPEG-SDAAVDTSSEITTKDLKEKKEVVEEAEN-NH2 ({Palmitoyl-Ser-Ser-Pro-H2N-Ser-Tyr-miniPEG}-SDAAVDTSSEITTKDLKEKKEVVEEAEN-NH2) [SEQ ID NO:239]	does not form gel		AS/IS (AS/IS for aqueous solution or insoluble)			
Pal-KVQKLAHQIYQFTDKD(Aib)APVDPSSPHSY-NH2 [SEQ ID NO:126]						Physical property at 11% w/w (Table 2): SS (SS for semisolid gel)
YRSRKYSSWY-NH2 [SEQ ID NO:46, reference compound]		AS/IS	AS/IS (AS/IS for aqueous solution or insoluble)	AS/IS		
YIGSR-NH2 [SEQ ID NO:39, reference compound]		AS/IS	AS/IS (AS/IS for aqueous solution or insoluble)	AS/IS		
SVSEIQLMHNLGKHLNSMERVEWLRKKLQDVHNF [SEQ ID NO:25, reference compound]	does not form gel	AS/IS	AS/IS (AS/IS for aqueous solution or insoluble)	AS/IS	AS/IS (AS/IS for aqueous solution or insoluble)	gel formation at 6% w/w: does not form gel; propensity to form gels, wild-type counterparts, 6% (Table 5): AS/IS
CC[C@H](C)[C@H](N)C(=O)N[C@H]1CSSC[C@@H](C(=O)N[C@H](C(N)=O)[C@@H](C)O)NC(=O)[C@H](CCCN=C(N)N)NC(=O)[C@H](Cc2cnc[nH]2)NC(=O)[C@H](Cc2cnc[nH]2)NC(=O)CNC(=O)[C@H](Cc2c[nH]c3ccccc23)NC(=O)[C@H](CC(=O)O)NC(=O)[C@H](CCC(N)=O)NC(=O)[C@H](C(C)C)NC(=O)[C@H](C(C)C)NC1=O [SEQ ID NO:11, reference compound]	form self-assembling gels; also recorded: semisolid gel	SS (SS for semisolid gel)	SS (SS for semisolid gel)	SS (An ability to form semisolid gel is represented by an SS)		
Pal-SSPHSY-miniPEG-(D-Arg)-Arg-Pro-Hyp-Gly-Thi-Ser-(D-Tic)-Oic-Arg [SEQ ID NO:233]			AS/IS (AS/IS for aqueous solution or insoluble)			gel formation at 30% w/w (30% w/w in water): semisolid gel; gel formation in aqueous solution, 30% (Table 3, 30% w/w): SS (SS for semisolid gel)
Pal-HSYADAIFTNSYRKVLGQLSARKLLQDIMSR-NH2 (Palmitoyl-HSYADAIFTNSYRKVLGQLSARKLLQDIMSR-NH2; SMILES CCCCCCCCCCCCCCCC(=O)N[C@@H](Cc1c[nH]cn1)C(=O)N[C@@H](CO)C(=O)N[C@@H](Cc1ccc(O)cc1)C(=O)N[C@@H](C)C(=O)N[C@@H](CC(=O)O)C(=O)N[C@@H](C)C(=O)N[C@H](C(=O)N[C@@H](Cc1ccccc1)C(=O)N[C@H](C(=O)N[C@@H](CC(N)=O)C(=O)N[C@@H](CO)C(=O)N[C@@H](Cc1ccc(O)cc1)C(=O)N[C@@H](CCCNC(=N)N)C(=O)N[C@@H](CCCCN)C(=O)N[C@H](C(=O)N[C@@H](CC(C)C)C(=O)NCC(=O)N[C@@H](CCC(N)=O)C(=O)N[C@@H](CC(C)C)C(=O)N[C@@H](CO)C(=O)N[C@@H](C)C(=O)N[C@@H](CCCNC(=N)N)C(=O)N[C@@H](CCCCN)C(=O)N[C@@H](CC(C)C)C(=O)N[C@@H](CC(C)C)C(=O)N[C@@H](CCC(N)=O)C(=O)N[C@@H](CC(=O)O)C(=O)N[C@H](C(=O)N[C@@H](CCSC)C(=O)N[C@@H](CO)C(=O)N[C@@H](CCCNC(=N)N)C(N)=O)[C@@H](C)CC)C(C)C)[C@@H](C)O)[C@@H](C)CC) [SEQ ID NO:237]			AS/IS (AS/IS for aqueous solution or insoluble)		AS/IS (AS/IS for aqueous solution or insoluble)	gel formation at 20% w/w: semisolid gel; gel formation in aqueous solution, 20% (Table 3, 20% w/w): SS (SS for semisolid gel); propensity to form gels, chimeric or mutated polypeptides, 6% (Table 5): AS/IS; propensity to form gels, chimeric or mutated polypeptides, 11% (Table 5): AS/IS; propensity to form gels, chimeric or mutated polypeptides, 20% (Table 5, 20% w/w): SS (An ability to form semisolid gel is represented by an SS)
QQRFEWEFEQQ-miniPEG-RPKPQQFFGLM-NH2 [SEQ ID NO:285]			AS/IS (AS/IS for aqueous solution or insoluble)		AS/IS (AS/IS for aqueous solution or insoluble)	
Pal-HSY-NH2 [SEQ ID NO:120]						Physical property at 11% w/w (Table 2): SS (SS for semisolid gel)
(D-Phe)-QWAVGHL-(4-CI)Phe-NH2 [SEQ ID NO:61, reference compound]	form self-assembling gels	SS (SS for semisolid gel)	SS (SS for semisolid gel)	SS (An ability to form semisolid gel is represented by an SS)	SS (SS for semisolid gel)	propensity to form gels, wild-type counterparts, 6% (Table 5): SS (An ability to form semisolid gel is represented by an SS)
HSDAVFTDNYTRLRKQ-Nle-AVKKYLNSILN-(Pal-K)-SY-NH2 [SEQ ID NO:266]	semisolid gel		SS (SS for semisolid gel)			propensity to form gels, chimeric or mutated polypeptides, 11% (Table 5): SS (An ability to form semisolid gel is represented by an SS)
Pal-HSY-Nle-cyclo[Asp-His-D-Phe-Arg-Trp-Lys]-NH2 [SEQ ID NO:257]			SS (SS for semisolid gel)			gel formation in aqueous solution, 20% (Table 3, 20% w/w): SS (SS for semisolid gel); propensity to form gels, chimeric or mutated polypeptides, 11% (Table 5): SS (An ability to form semisolid gel is represented by an SS); propensity to form gels, chimeric or mutated polypeptides, 20% (Table 5, 20% w/w): SS (An ability to form semisolid gel is represented by an SS)
Y-(D-Ala)-GF(D-Leu)-NH2 [SEQ ID NO:22, reference compound]	do not form gels	AS/IS	AS/IS (AS/IS for aqueous solution or insoluble)	AS/IS	AS/IS (AS/IS for aqueous solution or insoluble)	gel formation at 6% w/w: do not form gels; propensity to form gels, wild-type counterparts, 6% (Table 5): AS/IS
